Measurements reported in ChEMBL document CHEMBL5325510, “Vincamine, from an antioxidant and a cerebral vasodilator to its anticancer potential” (Bioorg Med Chem, 2023).

Assays:
A549 = assay: Cytotoxicity against human A549 cells assessed as reduction in cell viability measured after 48 hrs by MTT assay; format: functional, cell-based; conditions: A549, 48 h
B16 = assay: Cytotoxicity against mouse B16 cells assessed as reduction in cell viability measured after 96 hrs by microplate reader based MTT assay; format: functional
HEp-2 = assay: Cytotoxicity against human HEp-2 cells assessed as reduction in cell growth; format: functional, cell-based
KB = assay: Cytotoxicity against human KB cells assessed as cell growth inhibition incubated for 48 hrs by MTT assay; format: functional, cell-based

Structure (SMILES): CC[C@]12CCCN3CCc4c(n(c5ccccc45)[C@@](O)(C(=O)OC)C1)[C@@H]32 [VINCAMINE]
- IC50 (A549): 310 µM
- IC50 (B16): 68.9 µM
- IC50 (HEp-2): 274 µM
- IC50 (KB): 232 µM
